Laboratory results: ChEMBL document CHEMBL4138216, “Design, synthesis and structure-activity relationship of a focused library of β-phenylalanine derivatives as novel eEF2K inhibitors with apoptosis-inducing mechanisms in breast cancer” (Eur J Med Chem, 2018)
Active and inactive are the calls of the source.

Legend:
[1] = test system: MDA-MB-436; assay: Induction of apoptosis in human MDA-MB-436 cells assessed as membrane blebbing by phase contrast microscopy; type: functional, cell-based
[2] = test system: MDA-MB-231; assay: Induction of apoptosis in human MDA-MB-231 cells assessed as formation of apoptotic bodies by phase contrast microscopy; type: functional, cell-based
[3] = test system: MDA-MB-436; assay: Induction of apoptosis in human MDA-MB-436 cells assessed as formation of apoptotic bodies by phase contrast microscopy; type: functional, cell-based
[4] = test system: MDA-MB-231; assay: Induction of apoptosis in human MDA-MB-231 cells assessed as DNA condensation after 12 to 36 hrs by Hoechst 33258 staining-based fluorescence assay; type: functional, cell-based
[5] = test system: MDA-MB-436; assay: Induction of apoptosis in human MDA-MB-436 cells assessed as DNA condensation after 12 to 36 hrs by Hoechst 33258 staining-based fluorescence assay; type: functional, cell-based
[6] = test system: MDA-MB-231; assay: Induction of apoptosis in human MDA-MB-231 cells assessed as loss of mitochondrial membrane potential after 12 to 36 hrs by rhodamine123 staining-based flow cytometric method; type: functional, cell-based
[7] = test system: MDA-MB-436; assay: Induction of apoptosis in human MDA-MB-436 cells assessed as loss of mitochondrial membrane potential after 12 to 36 hrs by rhodamine123 staining-based flow cytometric method; type: functional, cell-based
[8] = test system: MDA-MB-231; assay: Induction of apoptosis in human MDA-MB-231 cells assessed as upregulation of Bax expression after 12 to 36 hrs by Western blot method; type: functional, cell-based
[9] = test system: MDA-MB-436; assay: Induction of apoptosis in human MDA-MB-436 cells assessed as upregulation of Bax expression after 12 to 36 hrs by Western blot method; type: functional, cell-based
[10] = test system: MDA-MB-231; assay: Induction of apoptosis in human MDA-MB-231 cells assessed as downregulation of Bcl-2 expression after 12 to 36 hrs by Western blot method; type: functional, cell-based
[11] = test system: MDA-MB-436; assay: Induction of apoptosis in human MDA-MB-436 cells assessed as increase in caspase-3 cleavage after 12 to 36 hrs by Western blot method; type: functional, cell-based
[12] = test system: MDA-MB-436; assay: Induction of apoptosis in human MDA-MB-436 cells assessed as increase in caspase-8 cleavage after 12 to 36 hrs by Western blot method; type: functional, cell-based
[13] = test system: MDA-MB-231; assay: Induction of apoptosis in human MDA-MB-231 cells assessed as increase in PARP cleavage after 12 to 36 hrs by Western blot method; type: functional, cell-based
[14] = test system: MDA-MB-436; assay: Induction of apoptosis in human MDA-MB-436 cells assessed as increase in PARP cleavage after 12 to 36 hrs by Western blot method; type: functional, cell-based
[15] = test system: Mus musculus; assay: Toxicity in BALB/c nude mouse xenografted with human MDA-MB-231 cells assessed as body weight loss at 25 mg/kg, ig qd measured every 3 days for 24 days during compound dosing; type: organism-based; conditions: in vivo, po
[16] = test system: Mus musculus; assay: Toxicity in BALB/c nude mouse xenografted with human MDA-MB-436 cells assessed as body weight loss at 25 mg/kg, ig qd measured every 3 days for 24 days during compound dosing; type: organism-based; conditions: in vivo, po, 576 h
[17] = test system: Mus musculus; assay: Toxicity in BALB/c nude mouse xenografted with human MDA-MB-231 cells assessed as body weight loss at 50 to 100 mg/kg, ig qd measured every 3 days for 24 days during compound dosing; type: organism-based; conditions: in vivo, po, 576 h
[18] = test system: Mus musculus; assay: Toxicity in BALB/c nude mouse xenografted with human MDA-MB-436 cells assessed as body weight loss at 50 to 100 mg/kg, ig qd measured every 3 days for 24 days during compound dosing; type: organism-based; conditions: in vivo, po, 576 h
[19] = test system: Mus musculus; assay: Toxicity in BALB/c nude mouse xenografted with human MDA-MB-231 cells assessed as effect on liver weight at 25 to 100 mg/kg, ig qd measured after 24 days; type: organism-based; conditions: in vivo, po, 576 h
[20] = test system: Mus musculus; assay: Toxicity in BALB/c nude mouse xenografted with human MDA-MB-231 cells assessed as effect on kidney weight at 25 to 100 mg/kg, ig qd measured after 24 days; type: organism-based; conditions: in vivo, po, 576 h
[21] = test system: Mus musculus; assay: Toxicity in BALB/c nude mouse xenografted with human MDA-MB-436 cells assessed as effect on liver weight at 25 to 100 mg/kg, ig qd measured after 24 days; type: organism-based; conditions: in vivo, po, 576 h
[22] = test system: Mus musculus; assay: Toxicity in BALB/c nude mouse xenografted with human MDA-MB-436 cells assessed as effect on kidney weight at 25 to 100 mg/kg, ig qd measured after 24 days; type: organism-based; conditions: in vivo, po, 576 h
[23] = test system: Mus musculus; assay: Toxicity in BALB/c nude mouse xenografted with human MDA-MB-436 cells assessed as decrease in spleen weight at 100 mg/kg, ig qd measured after 24 days; type: organism-based; conditions: in vivo, po, 576 h
[24] = test system: Mus musculus; assay: Toxicity in BALB/c nude mouse xenografted with human MDA-MB-231 cells assessed as decrease in spleen weight at 100 mg/kg, ig qd measured after 24 days; type: organism-based; conditions: in vivo, po, 576 h
[25] = test system: MDA-MB-231; assay: Induction of apoptosis in human MDA-MB-231 cells xenografted in BALB/c nude mouse at 25 to 100 mg/kg, ig qd measured after 24 days by TUNEL assay; type: functional, organism-based
[26] = test system: Mus musculus; assay: In vivo inhibition of eEF2K phosphorylation in tumor of BALB/c nude mouse xenografted with human MDA-MB-231 cells at 25 to 100 mg/kg, ig qd measured after 24 days by immunohistochemical analysis; type: functional, organism-based
[27] = test system: MDA-MB-231; assay: Induction of apoptosis in human MDA-MB-231 cells xenografted in BALB/c nude mouse assessed as decrease in pro-caspase-3 levels at 25 to 100 mg/kg, ig qd measured after 24 days by immunohistochemical analysis; type: functional, organism-based
[28] = test system: MDA-MB-231; assay: Induction of apoptosis in human MDA-MB-231 cells xenografted in BALB/c nude mouse assessed as increase in PARP cleavage at 25 to 100 mg/kg, ig qd measured after 24 days by Western blot method; type: functional, organism-based
[29] = test system: MDA-MB-231; assay: Induction of apoptosis in human MDA-MB-231 cells xenografted in BALB/c nude mouse assessed as increase in caspase-3 cleavage at 25 to 100 mg/kg, ig qd measured after 24 days by Western blot method; type: functional, organism-based
[30] = test system: Mus musculus; assay: In vivo inhibition of eEF2K phosphorylation in tumor of BALB/c nude mouse xenografted with human MDA-MB-231 cells at 25 to 100 mg/kg, ig qd measured after 24 days by Western blot method; type: functional, organism-based
[31] = test system: MDA-MB-231; assay: cells; conditions: Homo sapiens, MDA-MB-231, 24 h
Description: Antiproliferative activity against human MDA-MB-231 cells assessed as decrease in cell viability after 24 hrs by MTT assay

N#Cc1ccc(S(=O)(=O)NC(CC(=O)O)c2ccc(Cl)cc2Cl)cc1 (stereo unspecified)
active: Activity [1] | Activity [2] | Activity [3] | Activity [4] | Activity [5] | Activity [6] | Activity [7] | Activity [8] | Activity [9] | Activity [10] | Activity [11] | Activity [12] | Activity [13] | Activity [14] | Activity [25] | inhibition [26] | Activity [27] | Activity [28] | Activity [29] | inhibition [30]
Toxic: Activity [15] | Activity [16] | Activity [23] | Activity [24]
Non-Toxic: Activity [17] | Activity [18] | Activity [19] | Activity [20] | Activity [21] | Activity [22]
12.6 µM: IC50 [31]
